Measured values: PubChem BioAssay (NCI)
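The compound was tested at five concentrations on cells cultured in 96-well plates, with a 48-hour exposure period. Here, GI50 denotes the concentration required for 50% inhibition of growth. Definition used: TGI = concentration required for complete inhibition of growth.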

Columns and labels:
Test in all cases: DTP human tumour cell line panel, 48 h
[1] = system: COLO 205 colon
[2] = system: PC-3 prostate
[3] = system: SF-268 CNS
[4] = system: OVCAR-5 ovarian
[5] = system: UACC-62 melanoma
[6] = system: T-47D breast
[7] = system: NCI-H460 lung
[8] = system: DU-145 prostate
[9] = system: CAKI-1 renal
[10] = system: NCI-H226 lung
[11] = system: BT-549 breast
[12] = system: MOLT-4 leukemia
[13] = system: HCT-15 colon
[14] = system: MDA-MB-231 breast
[15] = system: A549 NSCLC
[16] = system: HOP-62 NSCLC
[17] = system: MCF7 breast
[18] = system: KM12 colon
[19] = system: MALME-3M melanoma
[20] = system: M14 melanoma
[21] = system: HL-60(TB) leukemia
[22] = system: TK-10 renal
[23] = system: OVCAR-8 ovarian
[24] = system: SK-OV-3 ovarian
[25] = system: IGROV1 ovarian
[26] = system: RXF 393 renal
[27] = system: OVCAR-3 ovarian
[28] = system: U251 CNS
[29] = system: ACHN renal
[30] = system: CCRF-CEM leukemia
[31] = system: SNB-19 CNS
[32] = system: LOX IMVI melanoma
[33] = system: SK-MEL-5 melanoma
[34] = system: 786-0 renal
[35] = system: HT29 colon
[36] = system: NCI-H522 lung
[37] = system: HS 578T breast
[38] = system: NCI-H23 lung
[39] = system: HOP-92 NSCLC
[40] = system: MDA-MB-435
[41] = system: NCI/ADR-RES ovarian
[42] = system: SF-539 CNS
[43] = system: HCC-2998 colon
[44] = system: HCT-116 colon
[45] = system: UACC-257 melanoma
[46] = system: SN12C renal
[47] = system: UO-31 renal
[48] = system: SW-620 colon
[49] = system: SF-295 CNS
[50] = system: SK-MEL-28 melanoma
[51] = system: EKVX NSCLC
[52] = system: A498 renal
[53] = system: SK-MEL-2 melanoma
[54] = system: OVCAR-4 ovarian
[55] = system: K-562 leukemia
[56] = system: SNB-75 CNS
[57] = system: RPMI-8226 leukemia
[58] = system: SR leukemia

COc1ccc(/C=C2\CCC(CNc3ccc(S(N)(=O)=O)cc3)C2=O)cc1 (configuration not stated)
TGI [1]: 34.4 µM
TGI [2]: 42.2 µM
TGI [3]: 54.4 µM
TGI [4]: 42.6 µM
TGI [5]: 50.6 µM
TGI [6]: 43.1 µM
TGI [7]: > 77.2 µM
TGI [8]: > 88.1 µM
TGI [9]: 19.3 µM
TGI [10]: > 100 µM
TGI [11]: 33.9 µM
TGI [12]: > 44.2 µM
TGI [13]: 18.2 µM
TGI [14]: 35.5 µM
TGI [15]: > 100 µM
TGI [16]: > 85.6 µM
TGI [17]: 14.7 µM
TGI [18]: 31.3 µM
TGI [19]: 36 µM
TGI [20]: 36.4 µM
TGI [21]: 7.73 µM
TGI [22]: 34.9 µM
TGI [23]: 35.4 µM
TGI [24]: > 100 µM
TGI [25]: 43.4 µM
TGI [26]: 35.3 µM
TGI [27]: 22.7 µM
TGI [28]: 39.2 µM
TGI [29]: 53.7 µM
TGI [30]: 5.98 µM
TGI [31]: > 65.9 µM
TGI [32]: 23.8 µM
TGI [33]: 31.8 µM
TGI [34]: 11.2 µM
TGI [35]: 25.9 µM
TGI [36]: 10.6 µM
TGI [37]: > 91.1 µM
TGI [38]: 39.6 µM
TGI [39]: 22.5 µM
TGI [40]: 41.3 µM
TGI [41]: > 100 µM
TGI [42]: > 59.2 µM
TGI [43]: > 100 µM
TGI [44]: 22.9 µM
TGI [45]: 40.2 µM
TGI [46]: 35.9 µM
TGI [47]: 12.2 µM
TGI [48]: 19.3 µM
TGI [49]: > 100 µM
TGI [50]: 34.7 µM
TGI [51]: > 69.2 µM
TGI [52]: > 86 µM
TGI [53]: > 100 µM
TGI [54]: > 81.2 µM
TGI [55]: 3.74 µM
TGI [56]: 76.2 µM

O=c1ccn2n1Cc1ccccc1C2
TGI [1]: > 100 µM
TGI [2]: > 100 µM
TGI [3]: > 100 µM
TGI [4]: > 100 µM
TGI [5]: > 100 µM
TGI [6]: > 100 µM
TGI [7]: > 100 µM
TGI [8]: > 100 µM
TGI [9]: > 100 µM
TGI [10]: > 100 µM
TGI [12]: > 100 µM
TGI [13]: > 100 µM
TGI [14]: > 100 µM
TGI [15]: > 100 µM
TGI [57]: > 100 µM
TGI [16]: > 100 µM
TGI [18]: > 100 µM
TGI [19]: > 100 µM
TGI [20]: > 100 µM
TGI [21]: > 100 µM
TGI [22]: > 100 µM
TGI [23]: > 100 µM
TGI [24]: > 100 µM
TGI [25]: > 100 µM
TGI [26]: > 100 µM
TGI [27]: > 100 µM
TGI [28]: > 100 µM
TGI [29]: > 100 µM
TGI [30]: > 100 µM
TGI [31]: > 100 µM
TGI [32]: > 100 µM
TGI [33]: > 100 µM
TGI [34]: > 100 µM
TGI [58]: > 100 µM
TGI [35]: > 100 µM
TGI [36]: > 100 µM
TGI [37]: > 100 µM
TGI [38]: > 100 µM
TGI [39]: > 100 µM
TGI [40]: > 100 µM
TGI [41]: > 100 µM
TGI [42]: > 100 µM
TGI [43]: > 100 µM
TGI [44]: > 100 µM
TGI [45]: > 100 µM
TGI [46]: > 100 µM
TGI [47]: > 100 µM
TGI [48]: > 100 µM
TGI [49]: > 100 µM
TGI [50]: > 100 µM
TGI [51]: > 100 µM
TGI [52]: > 100 µM
TGI [53]: > 100 µM
TGI [54]: > 100 µM
TGI [55]: > 100 µM

COC(=O)c1ccc(-c2nc3cc(Cl)c(Cl)cc3nc2C#N)cc1
GI50 [1]: > 100 µM
TGI [1]: > 100 µM
GI50 [2]: > 100 µM
TGI [2]: > 100 µM
GI50 [3]: > 100 µM
TGI [3]: > 100 µM
GI50 [5]: > 100 µM
TGI [5]: > 100 µM
GI50 [6]: > 100 µM
TGI [6]: > 100 µM
GI50 [7]: > 100 µM
TGI [7]: > 100 µM
GI50 [8]: > 100 µM
TGI [8]: > 100 µM
GI50 [9]: > 100 µM
TGI [9]: > 100 µM
GI50 [10]: > 100 µM
TGI [10]: > 100 µM
GI50 [11]: > 100 µM
TGI [11]: > 100 µM
GI50 [12]: > 100 µM
TGI [12]: > 100 µM
GI50 [13]: > 100 µM
TGI [13]: > 100 µM
GI50 [14]: > 100 µM
TGI [14]: > 100 µM
GI50 [15]: > 100 µM
TGI [15]: > 100 µM
GI50 [16]: 82.4 µM
TGI [16]: > 100 µM
GI50 [17]: > 100 µM
TGI [17]: > 100 µM
GI50 [18]: > 100 µM
TGI [18]: > 100 µM
GI50 [19]: > 100 µM
TGI [19]: > 100 µM
GI50 [20]: > 100 µM
TGI [20]: > 100 µM
GI50 [22]: > 100 µM
TGI [22]: > 100 µM
GI50 [23]: > 100 µM
TGI [23]: > 100 µM
GI50 [24]: > 100 µM
TGI [24]: > 100 µM
GI50 [25]: > 100 µM
TGI [25]: > 100 µM
GI50 [26]: > 100 µM
TGI [26]: > 100 µM
GI50 [27]: > 100 µM
TGI [27]: > 100 µM
GI50 [28]: 42 µM
TGI [28]: > 100 µM
GI50 [29]: > 100 µM
TGI [29]: > 100 µM
GI50 [30]: 31.6 µM
TGI [30]: > 100 µM
GI50 [31]: > 100 µM
TGI [31]: > 100 µM
GI50 [32]: > 100 µM
TGI [32]: > 100 µM
GI50 [33]: > 100 µM
TGI [33]: > 100 µM
GI50 [34]: > 100 µM
TGI [34]: > 100 µM
GI50 [35]: > 100 µM
TGI [35]: > 100 µM
GI50 [36]: > 100 µM
TGI [36]: > 100 µM
GI50 [38]: > 100 µM
TGI [38]: > 100 µM
GI50 [39]: 79 µM
TGI [39]: > 100 µM
GI50 [40]: > 100 µM
TGI [40]: > 100 µM
GI50 [41]: > 100 µM
TGI [41]: > 100 µM
GI50 [42]: > 100 µM
TGI [42]: > 100 µM
GI50 [43]: > 100 µM
TGI [43]: > 100 µM
GI50 [44]: > 100 µM
TGI [44]: > 100 µM
GI50 [45]: > 100 µM
TGI [45]: > 100 µM
GI50 [46]: > 100 µM
TGI [46]: > 100 µM
GI50 [47]: > 100 µM
TGI [47]: > 100 µM
GI50 [48]: > 100 µM
TGI [48]: > 100 µM
GI50 [49]: > 100 µM
TGI [49]: > 100 µM
GI50 [50]: > 100 µM
TGI [50]: > 100 µM
GI50 [51]: > 100 µM
TGI [51]: > 100 µM
GI50 [52]: > 100 µM
TGI [52]: > 100 µM
GI50 [53]: > 100 µM
TGI [53]: > 100 µM
GI50 [54]: > 100 µM
TGI [54]: > 100 µM
GI50 [55]: > 100 µM
TGI [55]: > 100 µM
GI50 [56]: > 100 µM
TGI [56]: > 100 µM
